This passage reports TGI results from PubChem BioAssay (NCI).

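Interpolation was linear, between the two tested concentrations surrounding the appropriate level; five concentrations were tested over 48 hours in 96-well plates. TGI marks complete inhibition of growth.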

Test in all cases: NCI-60 cell line screen, 48 h
The subject of assay [1] is 786-0 renal.
Assay [2] relates to A498 renal.
For assay [3], the system named is A549 NSCLC.
Assay [4] has as its system ACHN renal.
Assay [5] relates to BT-549 breast.
Assay [6] concerns CCRF-CEM leukemia.
Assay [7] deals with HCT-15 colon.
The test system of assay [8] is HL-60(TB) leukemia.
Assay [9] relates to HOP-62 NSCLC.
Assay [10] deals with K-562 leukemia.
The test system of assay [11] is LOX IMVI melanoma.
The test system of assay [12] is MDA-N.
Assay [13] relates to NCI-H226 lung.
Assay [14] relates to NCI-H23 lung.
The test system of assay [15] is NCI-H460 lung.
The subject of assay [16] is OVCAR-3 ovarian.
For assay [17], the system named is OVCAR-4 ovarian.
Assay [18] has as its system RPMI-8226 leukemia.
The subject of assay [19] is SF-268 CNS.
The subject of assay [20] is SNB-75 CNS.

Take `COc1ccc(N2C(=O)C(Cl)C2c2cc3cc(Br)ccc3nc2Cl)cc1` (stereo not given): the TGI in [1] was 18.5 µM; in assay [2], above 25 µM; in [3], above 25 µM; in assay [4], 9.64 µM; in assay [5] it was 9.11 µM; in [6], 14.7 µM. Moreover, the TGI in assay [7] is 11 µM; in [8] it was 14.5 µM; in assay [9], 20.4 µM; in assay [10], above 25 µM; in assay [11] it was 4.41 µM; in assay [12] it was 15.7 µM. For the same compound, the TGI in assay [13] was 13.2 µM; in assay [14], 15.6 µM; in assay [15] it was 12.2 µM; in assay [16], above 25 µM; in assay [17], 9.68 µM; in assay [18] it was 21.6 µM. For the same compound, the TGI in assay [19] is 19 µM; in assay [20], above 25 µM.
As to `CC1=NN(c2ccc(S(=O)(=O)O)cc2)C2(C1)C(Cl)C(=O)N2c1nc2ccccc2s1` (stereo not given), the TGI in assay [1], in assay [2], in [3], in assay [4], in assay [5] and in [6] was above 100 µM throughout. Besides, the TGI in assay [7], in assay [8], in assay [9], in assay [10], in assay [11] and in assay [12] was above 100 µM each time. Further, the TGI in [13], in [14], in assay [15], in assay [16], in assay [17] and in assay [18] was above 100 µM each time. The TGI in [19] and in [20] was above 100 µM throughout.
For `Cn1nnc2c(C(N)=S)ncn2c1=O`, the TGI in assay [1], in assay [2], in assay [3], in assay [4], in assay [5] and in assay [6] was above 100 µM in each case. Moreover, the TGI in assay [7], in [8], in assay [9], in assay [10], in assay [11] and in [12] was above 100 µM in each case. In addition, the TGI in assay [13], in assay [14], in assay [15], in [16], in assay [17] and in [18] was above 100 µM each time. In addition, the TGI in assay [19] and in assay [20] was above 100 µM throughout.
